Here are results for 2 molecules from patent US11213033B2, “Method for reusing leaves from arborescent woody plants, for the phytopharmaceutical industry” (CENTRE NATIONAL DE LA RECHERCHE SCIENTIFIQUE—CNRS, priority 2014, dated 2022).

Molecules are shown by their SMILES.

The subject of data set [1] is Phytophthora parasitica var. nicotianae (Ppn) isolate 329. The experiment in a line: Curative treatment of tobacco leaf discs against a pathogen: surface area of region of infection. The format is in vivo. Particulars: 50 μl composition (1% extract), 100 μl zoospore suspension, three days after the infiltrations. How it is done: Identical compositions are used, as well as leaves originating from the same tobacco plants as in Example 2. Two discs ([…]) are cut from a single leaf and then placed in a Petri dish containing a layer of 2% agarose gel.
The pathogen selected for the study is Phytophthora parasitica var. nicotianae (Ppn) isolate 329. The Ppn is grown on Malt Agar at 24° C. For the production of zoospores, the Ppn mycelium is grown for a week in V8 liquid medium at 24° C. under continuous light conditions, macerated, and then incubated for four days in water containing 2% agar. The zoospores are released by means of thermal shock consisting of two incubations, a first at 4° C. for 20 min, a second at 37° C. for 30 min after addition of 10 ml water. A zoospore suspension in water (1 zoospore per microliter) is prepared before being inoculated.
The compositions containing the extracts (50 μl) are infiltrated and the zoospore suspensions (100 μl) are inoculated into two separate regions, 1 cm apart, of the tobacco leaf parenchyma. Assays in which the compositions are replaced with salicylic acid (positive control) or ultrapure water (negative control) are performed. Three days after the infiltrations, the surface area of the region of infection is measured. The measurements are made using the Optima and Photoshop software for Windows.

Data set [2] is described as follows: Sulcotrione photoprotection test (Suntest irradiation, HPLC). The data set is classed as physicochemical. How it is done:
The pesticide used is sulcotrione. It was used in its Mikado commercial formulation. Sulcotrione degrades when irradiated by sunlight. The speed of the photodegradation depends on the environment of the molecule. To be representative of actual usage conditions of the pesticide, the rate of sulcotrione photodegradation is measured with the latter being dry, deposited in crystallizing dishes where the bottom is covered by a film of paraffin wax simulating the thin layer of epicuticular wax covering the surface of plants.
The formulated sulcotrione is deposited alone or in the presence of the compositions, 1 ml per crystallizing dish. The concentration of sulcotrione is fixed at 8 mg/l (100 g/ha) and that of the extracts is adjusted so that the absorbance of the compositions at 300 nm is equal to 4 for a 1 mm path length. The pH of the two compositions is normalized to 4.5 by the addition of sodium hydroxide. The crystallizing dishes are then inserted into a Suntest irradiator delivering a radiation similar in photon distribution and intensity to sunlight when the sun is at zenith in temperate regions, then removed after 3 h and 6 h of irradiation. The crystallizing dishes are rinsed with 2 ml ultrapure water and these solutions are analyzed by HPLC to determine their sulcotrione content.

As to `O=C(O)c1ccccc1O` [Salicylic acid, salicylic acid], the “Surface area of region of infection” value in data set [1] amounted to 10.9 ± 2.8 cm^2.
With `CS(=O)(=O)c1ccc(C(=O)C2C(=O)CCCC2=O)c(Cl)c1` [Sulcotrione alone, sulcotrione], in data set [2] (Suntest, 3 h), the “sulcotrione disappearance after 3 hours of irradiation” value is listed as 65%. For the same molecule, the “sulcotrione disappearance (loss) after 6 hours of irradiation” value in data set [2] (Suntest, 6 h) is given as “about 75%”. The “Sulcotrione content after 3 h irradiation” value in data set [2] (sulcotrione 8 mg/l, dry deposit on paraffin wax film, Suntest, 3 h) is 135 000 U.A. The “Sulcotrione content after 6 h irradiation” value in data set [2] (sulcotrione 8 mg/l, dry deposit on paraffin wax film, Suntest, 6 h) was 91 000 U.A. For the same molecule, in data set [2] (sulcotrione 8 mg/l, dry deposit on paraffin wax film, before irradiation), the Initial sulcotrione content is listed as 390 000 U.A.
